# According to EP3057951B1, “METHYLENE LINKED QUINOLINYL MODULATORS OF ROR-GAMMA-T” (Janssen Pharmaceutica NV, priority 2013, dated 2015):
# Where “and” joins values, the source holds several entries; their conditions need not be identical. Equal values may be shown once.
# What was measured:
# [1] = target: T1, wild type human RORγt ligand binding domain (RORyt LBD) (Homo sapiens, UniProt P51449); test: RORγt ThermoFluor assay (thermal shift, binding affinity KD)
# T1 construct: His-tag (N); TurboTEV protease cleavage site (ENLYFQG) (N); made in house; host or cells: E. coli (pHIS1, modified pET vector)
# T1 sequence (P51449 258-518): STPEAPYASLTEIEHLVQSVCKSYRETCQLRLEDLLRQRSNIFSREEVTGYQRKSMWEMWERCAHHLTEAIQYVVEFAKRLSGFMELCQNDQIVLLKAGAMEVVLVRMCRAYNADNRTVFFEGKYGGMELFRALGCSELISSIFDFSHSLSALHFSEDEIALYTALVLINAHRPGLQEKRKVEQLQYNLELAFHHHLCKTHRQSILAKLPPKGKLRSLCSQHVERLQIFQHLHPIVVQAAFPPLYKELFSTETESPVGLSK
# [2] = target: T2, wild type human RORγt LBD (Homo sapiens, UniProt P51449); test: RORγt (LBD) Reporter Assay (GAL4-luciferase, HEK293T cells); format: cell-based; conditions: for RORγt (LBD) Reporter Assay, % inhibition @ 6 µM: 6 µM compound concentration; for IC50: HEK293T cells, value after the comma with ∼, > or < could not be included in the average; for inhibition at 6 µM: HEK-293T, read-out: RORγt (LBD) Reporter Assay, % inhibition @ 6 µM, 6 µM compound concentration
# T2 construct: expressed in transfected cells; host or cells: HEK293T
# T2 sequence (P51449 258-518): T1 sequence (P51449 258-518)
Kd [1],"RORγt (LBD) Reporter Assay, % inhibition @ 6 µM ([2]; 6 µM)",IC50 [2],inhibition at 6 µM [2],"RORγt (LBD) Reporter Assay, % inhibition @ 6 µM [2]",Compound
2 nM,98%,11 nM,–,–,"COc1nc2ccc(C(O)(c3ccc(C)nc3C)c3cnnn3C)cc2c(Cl)c1Cc1ccc(-n2cncn2)cc1 (single isomer, unassigned) [Example 22c, (3-(4-(1H-1,2,4-Triazol-1-yl)benzyl)-4-chloro-2-methoxyquinolin-6-yl)(2,6-dimethylpyridin-3-yl)(1-methyl-1H-1,2,3-triazol-5-yl)methanol]"
82 nM,–,200 nM,94%,–,"CCc1nc2ccc(C(O)(c3ccc(C)nc3C)c3cnnn3C)cc2c(Cl)c1Cc1ccc(C(F)(F)F)cc1 (single isomer, unassigned) [Example 23b, (4-Chloro-2-ethyl-3-(4-(trifluoromethyl)benzyl)quinolin-6-yl)(2,6-dimethylpyridin-3-yl)(1-methyl-1H-1,2,3-triazol-5-yl)methanol]"
0.03 nM,97%,46 nM,–,–,"CCc1nc2ccc(C(O)(c3ccc(C)nc3C)c3cnnn3C)cc2c(Cl)c1Cc1ccc(C(F)(F)F)cc1 (single isomer, unassigned) [Example 23c, (4-Chloro-2-ethyl-3-(4-(trifluoromethyl)benzyl)quinolin-6-yl)(2,6-dimethylpyridin-3-yl)(1-methyl-1H-1,2,3-triazol-5-yl)methanol]"
130 nM,–,~220 nM,92%,–,"COc1nc2ccc(C(O)(c3ccc(C)nc3C)c3cnnn3C)cc2c(Cl)c1Cc1ccc(N(C)C)cc1 (single isomer, unassigned) [Example 24b, (4-Chloro-3-(4-(dimethylamino)benzyl)-2-methoxyquinolin-6-yl)(2,6-dimethylpyridin-3-yl)(1-methyl-1H-1,2,3-triazol-5-yl)methanol]"
0.32 nM,97%,25 nM,–,–,"COc1nc2ccc(C(O)(c3ccc(C)nc3C)c3cnnn3C)cc2c(Cl)c1Cc1ccc(N(C)C)cc1 (single isomer, unassigned) [Example 24c, (4-Chloro-3-(4-(dimethylamino)benzyl)-2-methoxyquinolin-6-yl)(2,6-dimethylpyridin-3-yl)(1-methyl-1H-1,2,3-triazol-5-yl)methanol]"
0.01 nM,–,1.9 nM and < 3 nM,100%,–,"CCc1nc2ccc(C(O)(c3cnnn3C)c3cnc(C)n3C)cc2c(Cl)c1Cc1ccc(C(F)(F)F)cc1 (single isomer, unassigned) [Example 25b, (4-Chloro-2-ethyl-3-(4-(trifluoromethyl)benzyl)quinolin-6-yl)(1,2-dimethyl-1H-imidazol-5-yl)(1-methyl-1H-1,2,3-triazol-5-yl)methanol]"
0.02 nM,99%,2.1 nM,–,–,"CCc1nc2ccc(C(O)(c3cnnn3C)c3cnc(C)n3C)cc2c(Cl)c1Cc1ccc(C(F)(F)F)cc1 (single isomer, unassigned) [Example 25c, (4-Chloro-2-ethyl-3-(4-(trifluoromethyl)benzyl)quinolin-6-yl)(1,2-dimethyl-1H-imidazol-5-yl)(1-methyl-1H-1,2,3-triazol-5-yl)methanol]"
150 nM,–,250 nM,94%,–,"COc1nc2ccc(C(O)(c3ccc(C#N)cc3)c3cncn3C)cc2c(Cl)c1Cc1ccc(C(F)(F)F)nc1 (single isomer, unassigned) [Example 38b, 4-((4-Chloro-2-methoxy-3-((6-(trifluoromethyl)pyridin-3-yl)methyl)quinolin-6-yl)(hydroxy)(1-methyl-1H-imidazol-5-yl)methyl)benzonitrile]"
5.2 nM,98%,14 nM,–,–,"COc1nc2ccc(C(O)(c3ccc(C#N)cc3)c3cncn3C)cc2c(Cl)c1Cc1ccc(C(F)(F)F)nc1 (single isomer, unassigned) [Example 38c, 4-((4-Chloro-2-methoxy-3-((6-(trifluoromethyl)pyridin-3-yl)methyl)quinolin-6-yl)(hydroxy)(1-methyl-1H-imidazol-5-yl)methyl)benzonitrile]"
1200 nM,–,1600 nM,92%,–,"COc1nc2ccc(C(O)(c3ccc(C)nc3C)c3cnnn3C)cc2c(C#N)c1Cc1ccc(C(F)(F)F)nc1 (single isomer, unassigned) [Example 41b, 6-((2,6-Dimethylpyridin-3-yl)(hydroxy)(1-methyl-1H-1,2,3-triazol-5-yl)methyl)-2-methoxy-3-((6-(trifluoromethyl)pyridin-3-yl)methyl)quinoline-4-carbonitrile]"
6.4 nM,99%,5.9 nM,–,–,"COc1nc2ccc(C(O)(c3ccc(C)nc3C)c3cnnn3C)cc2c(C#N)c1Cc1ccc(C(F)(F)F)nc1 (single isomer, unassigned) [Example 41c, 6-((2,6-Dimethylpyridin-3-yl)(hydroxy)(1-methyl-1H-1,2,3-triazol-5-yl)methyl)-2-methoxy-3-((6-(trifluoromethyl)pyridin-3-yl)methyl)quinoline-4-carbonitrile]"
0.49 nM,–,10 nM,98%,–,"COc1nc2ccc(C(O)(c3cnnn3C)c3cnc(C)n3C)cc2c(Cl)c1Cc1ccc(C(F)(F)F)nc1 (single isomer, unassigned) [Example 43b, (4-Chloro-2-methoxy-3-((6-(trifluoromethyl)pyridin-3-yl)methyl)quinolin-6-yl)(1,2-dimethyl-1H-imidazol-5-yl)(1-methyl-1H-1,2,3-triazol-5-yl)methanol]"
0.96 nM,99%,5.3 nM,–,–,"COc1nc2ccc(C(O)(c3cnnn3C)c3cnc(C)n3C)cc2c(Cl)c1Cc1ccc(C(F)(F)F)nc1 (single isomer, unassigned) [Example 43c, (4-Chloro-2-methoxy-3-((6-(trifluoromethyl)pyridin-3-yl)methyl)quinolin-6-yl)(1,2-dimethyl-1H-imidazol-5-yl)(1-methyl-1H-1,2,3-triazol-5-yl)methanol]"
5.2 nM,–,24 nM,99%,–,"COc1nc2ccc(C(O)(c3cnnn3C)c3cnc(C)n3C)cc2c(C#N)c1Cc1ccc(C(F)(F)F)nc1 (single isomer, unassigned) [Example 44b, 6-((1,2-Dimethyl-1H-imidazol-5-yl)(hydroxy)(1-methyl-1H-1,2,3-triazol-5-yl)methyl)-2-methoxy-3-((6-(trifluoromethyl)pyridin-3-yl)methyl)quinoline-4-carbonitrile]"
9 nM,–,19 nM,–,99%,"COc1nc2ccc(C(O)(c3cnnn3C)c3cnc(C)n3C)cc2c(C#N)c1Cc1ccc(C(F)(F)F)nc1 (single isomer, unassigned) [Example 44c, 6-((1,2-Dimethyl-1H-imidazol-5-yl)(hydroxy)(1-methyl-1H-1,2,3-triazol-5-yl)methyl)-2-methoxy-3-((6-(trifluoromethyl)pyridin-3-yl)methyl)quinoline-4-carbonitrile]"
3.9 nM,46%,170 nM,–,–,"COc1nc2ccc(C(O)(c3ccc(F)cc3)C3CCN(C(C)=O)CC3)cc2c(Cl)c1Cc1ccc(F)cc1 (single isomer, unassigned) [Example 51b, 1-(4-((4-Chloro-3-(4-fluorobenzyl)-2-methoxyquinolin-6-yl)(4-fluorophenyl)(hydroxy)methyl)piperidin-1-yl)ethanone]"
200 nM,4%,> 6000 nM,–,–,"COc1nc2ccc(C(O)(c3ccc(F)cc3)C3CCN(C(C)=O)CC3)cc2c(Cl)c1Cc1ccc(F)cc1 (single isomer, unassigned) [Example 51c, 1-(4-((4-Chloro-3-(4-fluorobenzyl)-2-methoxyquinolin-6-yl)(4-fluorophenyl)(hydroxy)methyl)piperidin-1-yl)ethanone]"
1.2 nM,32%,> 6000 nM,–,–,"Cn1cncc1C(O)(c1ccc(C(F)(F)F)nc1)c1ccc2nc(C#N)c(Cc3ccc(F)cc3)c(C#N)c2c1 (single isomer, unassigned) [Example 53b, 3-(4-Fluorobenzyl)-6-(hydroxy(1-methyl-1H-imidazol-5-yl)(6-(trifluoromethyl)pyridin-3-yl)methyl)quinoline-2,4-dicarbonitrile]"
48 nM,74%,680 nM,–,–,"Cn1cncc1C(O)(c1ccc(C(F)(F)F)nc1)c1ccc2nc(C#N)c(Cc3ccc(F)cc3)c(C#N)c2c1 (single isomer, unassigned) [Example 53c, 3-(4-Fluorobenzyl)-6-(hydroxy(1-methyl-1H-imidazol-5-yl)(6-(trifluoromethyl)pyridin-3-yl)methyl)quinoline-2,4-dicarbonitrile]"
530 nM,–,500 nM,96%,–,"COc1nc2ccc(C(O)(c3ccc(Cl)cc3)c3cncn3C)cc2c(C#N)c1Cc1ccc(C(F)(F)F)cc1 (single isomer, unassigned) [Example 55b, 6-((4-Chlorophenyl)(hydroxy)(1-methyl-1H-imidazol-5-yl)methyl)-2-methoxy-3-(4-(trifluoromethyl)benzyl)quinoline-4-carbonitrile]"
